Test results published in patent US11931356B1, “Compositions and methods for treating human papilloma virus infections” (priority 2022, dated 2024).

Tests used:
[1] = molecular target: C51S (cysteine 51 mutation to serine) HPV-16 E6 protein (Human papillomavirus type 16, UniProt P03126, C58S); test: whole protein mass spectra of mutant C51S HPV-16 E6 protein upon exposure to compound; format: binding, human papilloma virus 16; conditions: whole protein mass spectrum; cysteine 51 replaced by serine
Sequence of C51S (cysteine 51 mutation to serine) HPV-16 E6 protein (P03126 8-158 C58S): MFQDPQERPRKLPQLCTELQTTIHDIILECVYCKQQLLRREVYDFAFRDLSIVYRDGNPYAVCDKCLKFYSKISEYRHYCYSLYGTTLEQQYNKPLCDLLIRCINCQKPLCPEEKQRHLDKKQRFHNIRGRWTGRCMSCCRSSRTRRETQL

[2] = molecular target: HPV-16 E6 protein with Cys51 (Human papillomavirus type 16, UniProt P03126); format: binding; conditions: whole protein mass spectrum
Sequence of HPV-16 E6 protein with Cys51 (P03126 8-158): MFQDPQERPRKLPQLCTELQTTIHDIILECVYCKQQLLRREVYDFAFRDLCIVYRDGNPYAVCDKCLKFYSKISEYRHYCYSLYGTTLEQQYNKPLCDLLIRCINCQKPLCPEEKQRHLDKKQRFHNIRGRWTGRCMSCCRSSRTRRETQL

SMILES | mass shift of the C51S HPV-16 E6 protein upon exposure to compound [1] | mass shift of the HPV-16 E6 protein upon exposure to compound (covalent bonding at Cys51) [2]
C=CC(=O)N1CCN(c2nc(CCc3ccc(F)c(OC)c3)nc3sc4c(c23)CCCC4)CC1 [Compound 1] | lack of mass shift | mass shift
C=CC(=O)N1CCN(c2nc(CCc3ccc(O)c(F)c3)nc3sc4c(c23)CCCC4)CC1 [Compound 2] | lack of mass shift | mass shift
C=CC(=O)N1CCN(c2nc(CCc3ccc(F)c(O)c3)nc3sc4c(c23)CCCC4)CC1 [Compound 3] | lack of mass shift | mass shift
C=CC(=O)N1CCN(c2nc(CCc3cc(F)c(OC)c(F)c3)nc3sc4c(c23)CCCC4)CC1 [Compound 4] | lack of mass shift | mass shift
C=CC(=O)N1CCN(c2nc(CCc3cnc(OC)c(F)c3)nc3sc4c(c23)CCCC4)CC1 [Compound 5] | lack of mass shift | mass shift
C=CC(=O)N1CCN(c2nc(CCc3ccc(OC)c(OC)c3)nc3sc4c(c23)CCCC4)CC1 [Compound 6] | lack of mass shift | mass shift
C=CC(=O)N1CCN(C(=O)CN2CCc3sccc3C2c2cccc3ccccc23)CC1 (stereo not shown) [Compound 7] | lack of mass shift | mass shift
C=CC(=O)N1CCN(c2nc(C3CCCC3)nc3cccc(F)c23)CC1 [Compound 8] | lack of mass shift | mass shift
C=CC(=O)N1CCN(C(=O)CN2CCc3sccc3C2c2cccc3ncccc23)CC1 (stereo not shown) [Compound 9] | lack of mass shift | mass shift
C=CC(=O)N1CCN(c2nc(CCc3ccc(OC)c(F)c3)nc3sc4c(c23)CCCC4)CC1 [Compound 10] | lack of mass shift | mass shift
C=CC(=O)N1CCN(c2nc(CCc3cccc(OC)c3)nc3ccccc23)C(C)C1 (stereo not shown) [Compound 11] | lack of mass shift | mass shift
